This passage reports IC50 results from patent US10759783B2, “Biaryl inhibitors of Bruton'S tyrosine kinase” (BIOGEN MA INC., priority 2013, dated 2020).

A word on the IC50: it is the concentration that gives 50% inhibition.

Each structure is given as a SMILES string.

One test deals with T1, BTK enzyme (Homo sapiens, UniProt Q06187).
T1 construct: purchased Upstate 14-552
The test is described as follows: In vitro BTK kinase assay: BTK-POLYGAT-LS assay. The settings on record: ATP 10 μM, read-out: IC50 (10uMATP). It counts as biochemical. The method, boiled down: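 Human BTK activity was measured with final 10 μM ATP and 100 nM polyGAT substrate in pH 7.5 Tris buffer with 10 mM MgCl2, DTT, Triton X-100 and casein.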

The target of test [1] is BTK (phospho-BTK) in human whole blood (Homo sapiens, UniProt Q06187). The test is described as follows: In vitro PD assay in human whole blood (pBTK assay).
Sequence of BTK (phospho-BTK) in human whole blood (Q06187 whole entry): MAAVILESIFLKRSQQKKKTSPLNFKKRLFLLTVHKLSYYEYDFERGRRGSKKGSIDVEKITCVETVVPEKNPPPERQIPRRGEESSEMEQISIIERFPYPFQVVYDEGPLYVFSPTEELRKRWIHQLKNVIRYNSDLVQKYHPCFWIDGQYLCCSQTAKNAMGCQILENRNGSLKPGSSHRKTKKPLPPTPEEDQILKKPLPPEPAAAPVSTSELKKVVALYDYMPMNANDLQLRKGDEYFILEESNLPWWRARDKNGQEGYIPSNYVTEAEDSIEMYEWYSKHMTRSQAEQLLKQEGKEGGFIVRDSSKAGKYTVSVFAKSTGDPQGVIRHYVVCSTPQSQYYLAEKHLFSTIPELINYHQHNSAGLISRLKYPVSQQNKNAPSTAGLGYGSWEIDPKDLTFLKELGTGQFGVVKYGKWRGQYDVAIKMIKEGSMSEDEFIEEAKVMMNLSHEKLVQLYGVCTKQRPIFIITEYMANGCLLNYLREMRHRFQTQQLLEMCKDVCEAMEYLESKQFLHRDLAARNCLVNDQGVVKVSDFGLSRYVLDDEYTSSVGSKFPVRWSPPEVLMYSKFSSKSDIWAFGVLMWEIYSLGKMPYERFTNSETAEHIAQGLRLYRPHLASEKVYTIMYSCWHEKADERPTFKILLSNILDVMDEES

T1 sequence (Q06187 whole entry): as above

With `Cc1cc(-c2cc(Nc3cc4n(n3)CCNC4)ncn2)ccc1CNC(=O)c1cnc(C(C)(C)C)s1` [Example I-270, 2-tert-butyl-N-[[2-methyl-4-[6-(4,5,6,7-tetrahydropyrazolo[1,5-a]pyrazin-2-ylamino)pyrimidin-4-yl]phenyl]methyl]thiazole-5-carboxamide], the results for the IC50 (on BTK enzyme; in test [1]) were less than 10 nM and less than 500 nM, respectively.

On to `Cc1cc(-c2cc(Nc3ccn(C4CCN(C)CC4)n3)ncn2)ccc1CNC(=O)c1cnc(C(C)(C)C)s1` [Example I-358, 2-tert-butyl-N-[[2-methyl-4-[6-[[1-(1-methyl-4-piperidyl)pyrazol-3-yl]amino]pyrimidin-4-yl]phenyl]methyl]thiazole-5-carboxamide], for which the IC50 is less than 10 nM at BTK enzyme and less than 500 nM in test [1].

For `Cc1c(Nc2nccc(-c3ccc4c(c3)CCCCC4NC(=O)N3CC(OC(C)(C)C)C3)n2)cnn1C` (centres unmarked) [Example I-347, 3-tert-butoxy-N-[2-[2-[(1,5-dimethylpyrazol-4-yl)amino]pyrimidin-4-yl]-6,7,8,9-tetrahydro-5H-benzo[7]annulen-5-yl]azetidine-1-carboxamide], the figures for the IC50 (on BTK enzyme; in test [1]) were less than 10 nM and less than 500 nM, respectively.

With `Cc1cc(-c2ccnc(Nc3cnn(C4CN(C)C4)c3)n2)ccc1CNC(=O)N1CC(OC(C)C)C1` [Example I-218, 3-isopropoxy-N-(2-methyl-4-(2-((1-(1-methylazetidin-3-yl)-1H-pyrazol-4-yl)amino)pyrimidin-4-yl)benzyl)azetidine-1-carboxamide], the IC50 at BTK enzyme was less than 10 nM; in test [1], less than 500 nM.

Turning to `CN1CCC(n2cc(Nc3nccc(-c4ccc5c(c4)CCCCC5NC(=O)N4CC(OC(C)(C)C)C4)n3)cn2)CC1` (centres unmarked) [Example I-180, 3-(tert-butoxy)-N-(2-(2-((1-(1-methylpiperidin-4-yl)-1H-pyrazol-4-yl)amino)pyrimidin-4-yl)-6,7,8,9-tetrahydro-5H-benzo[7]annulen-5-yl)azetidine-1-carboxamide], the figures for the IC50 (at BTK enzyme; in test [1]) were less than 10 nM and less than 500 nM, respectively.

Regarding `Cc1cc(-c2ccnc(Nc3cnn(C)c3)n2)ccc1CN1Cc2cc(C3CC3)sc2C1=O` [Example I-13, 2-cyclopropyl-5-(2-methyl-4-(2-((1-methyl-1H-pyrazol-4-yl)amino)pyrimidin-4-yl)benzyl)-4H-thieno[2,3-c]pyrrol-6(5H)-one], the results for the IC50 (on BTK enzyme; in test [1]) were less than 10 nM and 1500 to 10000 nM, respectively.

As to `CC(C)OC1CN(C(=O)NC2CCCCc3cc(-c4ccnc(Nc5cnn(CC(C)(C)O)c5)n4)ccc32)C1` (centres unmarked) [Example I-336, N-[2-[2-[[1-(2-hydroxy-2-methyl-propyl)pyrazol-4-yl]amino]pyrimidin-4-yl]-6,7,8,9-tetrahydro-5H-benzo[7]annulen-5-yl]-3-isopropoxy-azetidine-1-carboxamide], the figures for the IC50 (on BTK enzyme; in test [1]) were less than 10 nM and less than 500 nM, respectively.

Regarding `COCCc1cc(-c2ccnc(Nc3cnn(C)c3)n2)ccc1CNC(=O)N1CC(OC(C)(C)C)C1` [Example I-319, 3-tert-butoxy-N-[[2-(2-methoxyethyl)-4-[2-[(1-methylpyrazol-4-yl)amino]pyrimidin-4-yl]phenyl]methyl]azetidine-1-carboxamide], the results for the IC50 (at BTK enzyme; in test [1]) were less than 10 nM and less than 500 nM, respectively.

Consider `CC(C)(C)C1CCN(C(=O)NCc2ccc(-c3ccnc(Nc4cnn(C5CCNC5)c4)n3)cc2C(F)(F)F)C1` [Example I-318, 3-tert-butyl-N-[8 4-[2-[[1-[(3R)-pyrrolidin-3-yl]pyrazol-4-yl]amino]pyrimidin-4-yl]-2-(trifluoromethyl)phenyl]methyl]pyrrolidine-1-carboxamide], for which the results for the IC50 (at BTK enzyme; in test [1]) were less than 10 nM and less than 500 nM, respectively.

Consider `Cn1cc(Nc2nccc(-c3ccc4c(c3)CCCC4NC(=O)c3cnc(C(C)(C)C)s3)n2)cn1` (centres unmarked) [Example I-91, 2-(tert-butyl)-N-(6-(2-((1-methyl-1H-pyrazol-4-yl)amino)pyrimidin-4-yl)-1,2,3,4-tetrahydronaphthalen-1-yl)thiazole-5-carboxamide], for which the IC50 on BTK enzyme is less than 10 nM; in test [1], 1500 to 10000 nM.

`CC(C)OC1CN(C(=O)NC2CCN(CCO)Cc3cc(-c4ccnc(Nc5cnn(C)c5)n4)ccc32)C1` (centres unmarked) [Example I-346, N-[2-(2-hydroxyethyl)-8-[2-[(1-methylpyrazol-4-yl)amino]pyrimidin-4-yl]-1,3,4,5-tetrahydro-2-benzazepin-5-yl]-3-isopropoxy-azetidine-1-carboxamide]: the IC50 on BTK enzyme was less than 10 nM; in test [1], less than 500 nM.

For the compound `Cc1cc(-c2cc(Nc3ccc4c(n3)CCNC4)ncn2)ccc1CNC(=O)c1cnc(C(C)(C)C)s1` [Example I-266, 2-tert-butyl-N-[[2-methyl-4-[6-(5,6,7,8-tetrahydro-1,6-naphthyridin-2-ylamino)pyrimidin-4-yl]phenyl]methyl]thiazole-5-carboxamide], the IC50 on BTK enzyme was less than 10 nM; in test [1] it was less than 500 nM.

`Cc1cc(-c2cc(Nc3ccc(N4CCN(C)CC4)cn3)ncn2)ccc1CNC(=O)c1cnn(C(C)(C)C)c1` [Example I-225, 1-(tert-butyl)-N-(2-methyl-4-(6-((5-(4-methylpiperazin-1-yl)pyridin-2-yl)amino)pyrimidin-4-yl)benzyl)-1H-pyrazole-4-carboxamide]: the IC50 on BTK enzyme was less than 10 nM; in test [1], less than 500 nM.

Take `CC(C)OC1CN(C(=O)NCc2ccc(-c3ccnc(Nc4cnn([C@@H]5CCOC5)c4)n3)cc2C(F)(F)F)C1` [Example I-314, 3-isopropoxy-N-[[4-[2-[[1-[(3R)-tetrahydrofuran-3-yl]pyrazol-4-yl]amino]pyrimidin-4-yl]-2-(trifluoromethyl)phenyl]methyl]azetidine-1-carboxamide]: the IC50 was less than 10 nM on BTK enzyme and less than 500 nM in test [1].

As to `Cc1cc(-c2ccnc(Nc3cnn(C4CN(C)C4)c3)n2)ccc1CNC(=O)c1cnc(C(C)(C)C)s1` [Example I-43, 2-(tert-butyl)-N-(2-methyl-4-(2-((1-(1-methylazetidin-3-yl)-1H-pyrazol-4-yl)amino)pyrimidin-4-yl)benzyl)thiazole-5-carboxamide], the IC50 on BTK enzyme was less than 10 nM; in test [1], less than 500 nM.

Turning to `Cc1cc(-c2ccnc(Nc3cnn(C)c3)n2)ccc1CNC(=O)N1CC[C@H](C(C)(C)C)C1` [Example I-253, (3R)-3-tert-butyl-N-[[2-methyl-4-[2-[(1-methylpyrazol-4-yl)amino]pyrimidin-4-yl]phenyl]methyl]pyrrolidine-1-carboxamide], the figures for the IC50 (at BTK enzyme; in test [1]) were less than 10 nM and less than 500 nM, respectively.

`Cn1cc(Nc2nccc(-c3ccc(CNC(=O)c4cnn(C(C)(C)C)c4)c(Cl)c3)n2)cn1` [Example I-291, 1-tert-butyl-N-[[2-chloro-4-[2-[(1-methylpyrazol-4-yl)amino]pyrimidin-4-yl]phenyl]methyl]pyrazole-4-carboxamide]: the IC50 is less than 10 nM at BTK enzyme and less than 500 nM in test [1].

On to `Cn1cc(Nc2nccc(-c3ccc(CNC(=O)c4cnn(C(C)(C)C)c4)c(CCO)c3)n2)cn1` [Example I-191, 1-(tert-butyl)-N-(2-(2-hydroxyethyl)-4-(2-((1-methyl-1H-pyrazol-4-yl)amino)pyrimidin-4-yl)benzyl)-1H-pyrazole-4-carboxamide], for which the IC50 is less than 10 nM on BTK enzyme and less than 500 nM in test [1].

Regarding `Cc1cc(-c2cc(Nc3cc4n(n3)CCN(C)C4C)ncn2)ccc1CNC(=O)N1CCC(C(C)(C)C)C1` (centres unmarked) [Example I-284, 3-tert-butyl-N-[[4-[6-[(4,5-dimethyl-6,7-dihydro-4H-pyrazolo[1,5-a]pyrazin-2-yl)amino]pyrimidin-4-yl]-2-methyl-phenyl]methyl]pyrrolidine-1-carboxamide], the IC50 is less than 10 nM on BTK enzyme and less than 500 nM in test [1].

Consider `CN1CC(n2cc(Nc3nccc(-c4ccc(CNC(=O)c5cc(C(C)(C)C)on5)c(C(F)(F)F)c4)n3)cn2)C1` [Example I-355, 5-tert-butyl-N-[[4-[2-[[1-(1-methylazetidin-3-yl)pyrazol-4-yl]amino]pyrimidin-4-yl]-2-(trifluoromethyl)phenyl]methyl]isoxazole-3-carboxamide], for which the figures for the IC50 (on BTK enzyme; in test [1]) were less than 10 nM and less than 500 nM, respectively.

In the case of `Cc1cc(-c2ccnc(Nc3cnn(C)c3)n2)ccc1CNC(=O)N1CC[C@@H](C(C)C)C1` [Example I-255, (3S)-3-isopropyl-N-[[2-methyl-4-[2-[(1-methylpyrazol-4-yl)amino]pyrimidin-4-yl]phenyl]methyl]pyrrolidine-1-carboxamide], the half-inhibitory concentration (IC50) on BTK enzyme was less than 10 nM; in test [1], less than 500 nM.

With `Cc1cc(-c2ccnc(Nc3cnn(C)c3C)n2)ccc1CNC(=O)N1CC(OC(C)(C)C)C1` [Example I-223, 3-(tert-butoxy)-N-(4-(2-((1,5-dimethyl-1H-pyrazol-4-yl)amino)pyrimidin-4-yl)-2-methylbenzyl)azetidine-1-carboxamide], the IC50 at BTK enzyme is less than 10 nM; in test [1], 500 to 1500 nM.

As to `Cc1cc(-c2ccnc(Nc3cc4n(n3)CCN(C)C4)n2)ccc1CNC(=O)c1cnc(C(C)(C)C)s1` [Example I-55, 2-(tert-butyl)-N-(2-methyl-4-(2-((5-methyl-4,5,6,7-tetrahydropyrazolo[1,5-a]pyrazin-2-yl)amino)pyrimidin-4-yl)benzyl)thiazole-5-carboxamide], the IC50 on BTK enzyme is less than 10 nM; in test [1] it was 1500 to 10000 nM.

Consider `CC(C)OC1CN(C(=O)NC2CNCCc3cc(-c4ccnc(Nc5cnn(C)c5)n4)ccc32)C1` (centres unmarked) [Example I-352, 3-isopropoxy-N-[7-[2-[(1-methylpyrazol-4-yl)amino]pyrimidin-4-yl]-2,3,4,5-tetrahydro-1H-3-benzazepin-1-yl]azetidine-1-carboxamide], for which the IC50 was 10 to 99 nM at BTK enzyme and less than 500 nM in test [1].

With `CC(C)(C)CN1CCN(Cc2ccc(-c3ccnc(Nc4cnn(CCO)c4)n3)cc2C(F)(F)F)C(=O)C1` [Example I-350], the IC50 at BTK enzyme is less than 10 nM; in test [1], less than 500 nM.
